The test has as its system patients with dry eye symptoms. Briefly: Clinical use of lipid composition applied to the eyelid margin for dry eye. Conditions: Patient No. 4; 1 percent non-preserved, two weeks. Format: in vivo, human.

Text: These patients were afflicted with meibomian gland dysfunction, various forms of dry eye syndrome, abnormal lids due to chemical burns, Stevens-Johnson syndrome, ocular pemphigoid, etc.

Consider `C[C@H]1C[C@@H]2[C@H]([C@@H](O)C[C@@]3(C)[C@H]2CC[C@]3(O)C(=O)CO)[C@@]2(C)C=CC(=O)C=C12` [methyl prednisolone], for which the improvement of symptoms was 50%.

Source of the values: US20070082017A1, “Lipid compositions and methods of use” (priority 2004, published 2007).
